Assay results reported in ChEMBL document CHEMBL5653615 (J Biol Chem, 2013).
One block for each molecule: values may come before it.

How the values were obtained:
[1] = biological target: T1, Aurora kinase A (Homo sapiens) (UniProt O14965); test: Inhibition of human Aurora A at 18.6 nM by HotSpot assay relative to control
T1 sequence (whole entry): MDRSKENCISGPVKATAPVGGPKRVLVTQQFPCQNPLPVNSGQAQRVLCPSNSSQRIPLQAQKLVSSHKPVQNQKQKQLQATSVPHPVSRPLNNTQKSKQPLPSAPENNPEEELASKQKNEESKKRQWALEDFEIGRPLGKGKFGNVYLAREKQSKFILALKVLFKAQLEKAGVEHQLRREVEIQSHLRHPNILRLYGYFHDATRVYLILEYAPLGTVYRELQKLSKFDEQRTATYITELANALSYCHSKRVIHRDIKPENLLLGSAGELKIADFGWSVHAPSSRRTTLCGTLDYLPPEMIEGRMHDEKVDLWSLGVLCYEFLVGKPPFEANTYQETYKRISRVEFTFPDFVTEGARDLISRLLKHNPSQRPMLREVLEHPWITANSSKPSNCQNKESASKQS

[2] = biological target: Receptor tyrosine-protein kinase erbB-2 (Homo sapiens) (UniProt P04626); test: Inhibition of human ERBB2 at 18.6 nM by HotSpot assay relative to control
[3] = biological target: CDK9/Cyclin K (Homo sapiens) (UniProt P50750+O75909); test: Inhibition of human CDK9/cyclin K at 1.82 nM by HotSpot assay relative to control; type: protein-complex assay
[4] = biological target: Casein kinase I isoform gamma-1 (Homo sapiens) (UniProt Q9HCP0); test: Inhibition of human CK1g1 at 1.82 nM by HotSpot assay relative to control
[5] = biological target: T2, Serine/threonine-protein kinase D2 (Homo sapiens) (UniProt Q9BZL6); test: Inhibition of human PRKD2 at 1.82 nM by HotSpot assay relative to control
T2 sequence (whole entry): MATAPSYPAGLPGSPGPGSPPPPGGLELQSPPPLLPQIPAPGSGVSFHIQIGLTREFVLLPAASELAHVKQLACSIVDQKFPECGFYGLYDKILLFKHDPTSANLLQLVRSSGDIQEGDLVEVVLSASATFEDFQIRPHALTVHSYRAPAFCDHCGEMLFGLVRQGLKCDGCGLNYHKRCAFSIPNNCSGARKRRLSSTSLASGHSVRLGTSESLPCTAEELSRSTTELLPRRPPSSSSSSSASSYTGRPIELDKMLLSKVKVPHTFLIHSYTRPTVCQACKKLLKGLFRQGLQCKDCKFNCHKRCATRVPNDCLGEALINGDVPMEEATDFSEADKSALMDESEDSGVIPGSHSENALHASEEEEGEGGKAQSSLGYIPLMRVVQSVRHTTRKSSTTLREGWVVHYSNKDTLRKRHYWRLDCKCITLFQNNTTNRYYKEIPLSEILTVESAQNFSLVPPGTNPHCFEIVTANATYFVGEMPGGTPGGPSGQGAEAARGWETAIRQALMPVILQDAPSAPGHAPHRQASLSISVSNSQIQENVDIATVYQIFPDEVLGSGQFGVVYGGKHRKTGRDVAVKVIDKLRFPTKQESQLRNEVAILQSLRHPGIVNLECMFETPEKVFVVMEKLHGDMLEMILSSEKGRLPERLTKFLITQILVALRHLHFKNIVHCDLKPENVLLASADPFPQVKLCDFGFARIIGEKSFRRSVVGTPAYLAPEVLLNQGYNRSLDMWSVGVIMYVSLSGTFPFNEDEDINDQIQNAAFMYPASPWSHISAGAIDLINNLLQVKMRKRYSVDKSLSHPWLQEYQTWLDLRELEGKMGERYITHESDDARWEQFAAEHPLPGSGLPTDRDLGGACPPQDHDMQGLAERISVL

[6] = biological target: Tyrosine-protein kinase SYK (Homo sapiens) (UniProt P43405); test: Inhibition of human SYK at 1.82 nM by HotSpot assay relative to control
[7] = biological target: T3, Testis-specific serine/threonine-protein kinase 2 (Homo sapiens) (UniProt Q96PF2); test: Inhibition of human TSSK2 at 1.82 nM by HotSpot assay relative to control
T3 sequence (whole entry): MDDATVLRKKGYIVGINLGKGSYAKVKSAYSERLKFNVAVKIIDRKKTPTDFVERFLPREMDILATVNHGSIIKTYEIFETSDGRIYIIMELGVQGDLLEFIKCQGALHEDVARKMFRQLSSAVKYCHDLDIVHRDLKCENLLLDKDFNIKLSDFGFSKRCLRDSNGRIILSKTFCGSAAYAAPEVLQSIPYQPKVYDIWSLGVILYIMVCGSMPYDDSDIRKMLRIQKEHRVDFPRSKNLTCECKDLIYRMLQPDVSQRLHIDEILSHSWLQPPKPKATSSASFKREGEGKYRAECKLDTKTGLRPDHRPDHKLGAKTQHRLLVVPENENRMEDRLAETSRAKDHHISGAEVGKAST

[8] = biological target: T4, Dual serine/threonine and tyrosine protein kinase (Homo sapiens) (UniProt Q6XUX3); test: Inhibition of human RIPK5 at 500 nM by HotSpot assay relative to control
T4 sequence (whole entry): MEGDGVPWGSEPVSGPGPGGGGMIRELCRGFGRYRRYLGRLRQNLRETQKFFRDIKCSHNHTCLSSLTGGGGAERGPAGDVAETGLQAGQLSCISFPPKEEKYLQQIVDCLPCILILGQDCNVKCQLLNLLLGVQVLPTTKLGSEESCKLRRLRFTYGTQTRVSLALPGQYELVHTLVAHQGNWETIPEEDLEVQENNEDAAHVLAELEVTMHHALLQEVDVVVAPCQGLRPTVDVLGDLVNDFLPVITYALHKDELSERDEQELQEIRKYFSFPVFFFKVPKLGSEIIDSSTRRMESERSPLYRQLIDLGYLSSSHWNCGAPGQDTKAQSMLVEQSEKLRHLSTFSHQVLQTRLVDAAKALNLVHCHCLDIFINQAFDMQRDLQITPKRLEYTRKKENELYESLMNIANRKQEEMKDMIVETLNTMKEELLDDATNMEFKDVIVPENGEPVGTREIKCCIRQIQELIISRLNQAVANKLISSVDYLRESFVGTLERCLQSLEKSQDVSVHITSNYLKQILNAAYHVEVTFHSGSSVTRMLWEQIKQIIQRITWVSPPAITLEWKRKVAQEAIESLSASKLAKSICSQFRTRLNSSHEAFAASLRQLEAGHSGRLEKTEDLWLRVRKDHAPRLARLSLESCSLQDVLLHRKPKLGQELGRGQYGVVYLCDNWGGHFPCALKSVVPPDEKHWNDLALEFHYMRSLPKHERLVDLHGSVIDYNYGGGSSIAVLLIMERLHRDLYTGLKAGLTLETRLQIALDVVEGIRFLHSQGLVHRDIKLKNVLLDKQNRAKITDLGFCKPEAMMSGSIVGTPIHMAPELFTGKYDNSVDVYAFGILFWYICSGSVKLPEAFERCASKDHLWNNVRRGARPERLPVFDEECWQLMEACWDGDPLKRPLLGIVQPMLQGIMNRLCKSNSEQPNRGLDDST

Sequence of Receptor tyrosine-protein kinase erbB-2 (Homo sapiens) (P04626 whole entry): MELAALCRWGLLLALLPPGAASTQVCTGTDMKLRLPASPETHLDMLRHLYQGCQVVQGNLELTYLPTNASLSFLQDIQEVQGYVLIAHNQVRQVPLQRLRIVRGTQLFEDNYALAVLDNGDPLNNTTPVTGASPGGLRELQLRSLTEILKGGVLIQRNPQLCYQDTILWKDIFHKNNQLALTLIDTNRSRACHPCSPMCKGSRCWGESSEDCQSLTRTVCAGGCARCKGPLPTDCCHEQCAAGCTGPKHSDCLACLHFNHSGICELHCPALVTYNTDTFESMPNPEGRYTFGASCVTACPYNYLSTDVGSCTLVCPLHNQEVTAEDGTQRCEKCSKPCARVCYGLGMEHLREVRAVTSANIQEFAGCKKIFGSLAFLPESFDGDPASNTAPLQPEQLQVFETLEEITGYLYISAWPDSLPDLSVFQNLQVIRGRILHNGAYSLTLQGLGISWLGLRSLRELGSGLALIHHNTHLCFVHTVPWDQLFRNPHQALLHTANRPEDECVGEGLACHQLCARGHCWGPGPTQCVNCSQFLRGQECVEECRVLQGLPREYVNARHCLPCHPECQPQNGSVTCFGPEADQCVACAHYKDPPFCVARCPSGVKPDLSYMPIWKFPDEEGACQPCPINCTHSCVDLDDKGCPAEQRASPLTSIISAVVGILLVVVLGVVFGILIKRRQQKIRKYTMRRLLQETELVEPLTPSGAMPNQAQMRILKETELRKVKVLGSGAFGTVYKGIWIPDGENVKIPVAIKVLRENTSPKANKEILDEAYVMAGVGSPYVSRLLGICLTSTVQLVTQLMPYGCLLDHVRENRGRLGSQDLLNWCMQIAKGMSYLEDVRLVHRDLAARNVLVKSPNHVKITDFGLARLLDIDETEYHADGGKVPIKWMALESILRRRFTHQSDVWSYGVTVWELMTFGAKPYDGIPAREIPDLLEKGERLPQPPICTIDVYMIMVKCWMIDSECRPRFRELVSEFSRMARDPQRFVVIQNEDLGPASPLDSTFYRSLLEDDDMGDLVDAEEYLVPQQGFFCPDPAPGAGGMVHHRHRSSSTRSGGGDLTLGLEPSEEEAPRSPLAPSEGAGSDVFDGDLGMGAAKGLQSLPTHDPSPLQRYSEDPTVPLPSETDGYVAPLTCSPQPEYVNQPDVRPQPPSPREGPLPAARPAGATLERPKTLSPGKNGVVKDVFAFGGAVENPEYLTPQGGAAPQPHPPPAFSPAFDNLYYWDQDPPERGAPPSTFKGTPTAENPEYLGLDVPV
Sequence of Casein kinase I isoform gamma-1 (Homo sapiens) (Q9HCP0 whole entry, looked up, canonical isoform): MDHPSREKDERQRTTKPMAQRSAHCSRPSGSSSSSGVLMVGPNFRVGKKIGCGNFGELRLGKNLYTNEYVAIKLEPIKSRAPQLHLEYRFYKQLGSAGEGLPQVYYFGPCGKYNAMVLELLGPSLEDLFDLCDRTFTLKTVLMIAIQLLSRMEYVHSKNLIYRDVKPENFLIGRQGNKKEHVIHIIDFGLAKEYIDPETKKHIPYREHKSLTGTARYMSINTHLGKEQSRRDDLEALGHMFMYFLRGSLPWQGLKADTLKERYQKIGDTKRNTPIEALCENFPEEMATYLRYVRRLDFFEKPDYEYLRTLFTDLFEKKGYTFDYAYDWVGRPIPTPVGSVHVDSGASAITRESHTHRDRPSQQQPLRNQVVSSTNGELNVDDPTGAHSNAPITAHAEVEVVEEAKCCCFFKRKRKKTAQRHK

- inhibition [1]: -2.4%
- inhibition [2]: 1.71%
SMILES: C[C@]1(O)C[C@@H](c2nc(-c3ccc4ccc(-c5ccccc5)nc4c3)c3c(N)nccn32)C1

- inhibition [3]: 4.72%
- inhibition [4]: -3.54%
- inhibition [5]: 2.22%
- inhibition [6]: -1.25%
- inhibition [7]: -1.46%
SMILES: C[C@@]1(C(=O)Nc2ccc(F)nc2)CCCN1c1nc(Nc2cc(C3CC3)n[nH]2)c2cccn2n1

SMILES: Nc1n[nH]c2nnc(-c3c(-c4ccccc4)nn4ccccc34)cc12
- inhibition [8]: 4.06%
